Where “and” joins values, the source holds several entries; their conditions need not be identical. Identical values can stand only once.

The subject of the test is 953936-095-R-J2-PDC spheroids with HUVEC/MSC, viability. The test can be described thus: Anticancer human tumor 953936-095-R-J2-PDC patient-derived cervical squamous cell carcinoma cell line growth inhibition [PI3K]. To be noted: for viability, T/C: stronger effect = lower value. The source says: Combinatorial screen of targeted agents with the PI3K inhibitors inavolisib, alpelisib, duvelisib, and copanlisib in multi-cell type tumor spheroids
A high-throughput screen of multi-cell type tumor spheroids was designed to identify active combinations of targeted small molecules and PI3K pathway inhibitors. Complex spheroids include a stromal component modeled by human endothelial cells (HUVEC) and fibroblasts modeled by human mesenchymal stem cells (MSCs). The concentration ranges selected for each drug and investigational agent were based upon clinically achievable concentrations if the clinical Cmax of the agent was known.
Compounds. The drugs and investigational agents: inavolisib (NSC800729), alpelisib (NSC765974), duvelisib (NSC772469), copanlisib (NSC816437), ipatasertib (NSC767898), afuresertib (NSC778305), talazoparib (NSC767125), sapanisertib (NSC764658), selumetinib (NSC741078), tovorafenib (DAY101, NSC766906), vemurafenib (NSC761431), ravoxertinib (NSC781343), sotorasib (NSC818433), MRTX1133 (NSC 836407), abemaciclib (NSC 768073), palbociclib (NSC758247), venetoclax (NSC 766270), SY5609 (NSC837396), enzalutamide (NSC755605), and darolutamide (NSC825331), were obtained from the National Cancer Institute (NCI) Developmental Therapeutics Program Chemical Repository. The FDA-approved anticancer drug set is available from the NCI Developmental Therapeutics Program. […] The stock solutions were prepared in dimethyl sulfoxide (DMSO, Sigma-Aldrich, St. Louis, MO, cat. D2650) at 800-fold the tested concentration and stored at -70 degrees C prior to their use. All drugs and investigational agents were tested over a range starting from a high concentration at or near the clinical Cmax and decreasing in half-log increments. If the clinical Cmax for an agent had not been determined, the highest concentration tested was 10 microM.
Cell Culture. All cells were maintained in an incubator at 37 degrees C and 5% CO2 with 95% humidity. The PDC lines were cultured according to standard operating procedures established by the NCI PDMR (https://pdmr.cancer.gov/sops/default.htm). All PDCs were thawed and cultured in Matrigel-coated flasks prepared with a working solution of 1X Ham's F-12 nutrient mix, without supplementation (Invitrogen, Waltham, MA, cat. 11765054), 100 U/mL penicillin-streptomycin (Invitrogen, cat. 15140122), and 2.5% Matrigel (Corning Inc., Corning, NY, cat. 354248) for the first three passages. The 354836-022-R-J1-PDC, 475296-252-R-J1-PDC, and 997726-040-R-J2-PDC lines were cultured in 6A media, which includes advanced DMEM/F-12 (Thermo Fisher Scientific, cat. 12634028), 10 mM HEPES (Thermo Fisher Scientific, cat. 15630080), 1X GlutaMAX supplement (Thermo Fisher Scientific, cat. 35050061), 0.1 mg/mL primocin (InvivoGen, San Diego, CA, cat. ant-pm-2), 10% defined fetal bovine serum, heat inactivated (HyClone Laboratories Inc., Logan, UT, cat. SH30070.03HI), 50% L-WRN conditioned media (ATCC, cat. CRL-3276), 1.25 mM N-Acetyl-L-cysteine (Sigma-Aldrich, cat. A9165), 10 mM nicotinamide (Sigma-Aldrich, cat. N0636), 1X B-27 supplement (Thermo Fisher Scientific, cat. 17504044), 1X N-2 supplement (Thermo Fisher Scientific, cat. 17502048), and 10 microM Y-27632 dihydrochloride (Tocris Bioscience, Bristol, United Kingdom, cat. 1254). The 624824-186-R-J2-PDC line was cultured in 6C/Colon 1B media, which includes all 6A media components plus 50 ng/mL human EGF recombinant protein (Thermo Fisher Scientific, cat. PHG0311). […]

[1] abbreviates: compound alone, run of 06/12/2023.
Where [2] appears, read: compound alone, run of 06/13/2023.
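Note: spheroids exposed to compounds for seven days before read-out.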

Usually viability, T/C stands for the ratio of treated to control. For orientation: IC50 means the concentration at which inhibition is half-maximal. `CC(=O)c1c(C)c2cnc(Nc3ccc(N4CCNCC4)cn3)nc2n(C2CCCC2)c1=O`: the viability, T/C is 95.2% [middle of 4 runs] (compound 0.000316 µM); 96.6% [middle of 4 runs] (compound 0.001 µM); 103% [middle of 4 runs] (compound 0.00316 µM); 97.6% [middle of 4 runs] (compound 0.01 µM); 96.6% [middle of 4 runs] (compound 0.0316 µM); 95.7% [middle of 4 runs] (compound 0.1 µM). Moreover, the IC50 (curve of compound) is greater than 0.1 µM.

Take `CC(C)NCC(C(=O)N1CCN(c2ncnc3c2C(C)CC3O)CC1)c1ccc(Cl)cc1` (stereo unspecified): the viability, T/C is 92.7% [middle of 4 runs] (compound 0.0316 µM); 91.5% [middle of 4 runs] (compound 0.1 µM); 80.4% [middle of 4 runs] (compound 0.316 µM); 50.5% [middle of 4 runs] (compound 1 µM); 24.3% [middle of 4 runs] (compound 3.16 µM); 15.2% [middle of 4 runs] (compound 10 µM). For the same molecule, the IC50 (curve of compound) is 1.02 µM [middle of 4 runs].

Turning to `CC(C)n1nc(-c2ccc3oc(N)nc3c2)c2c(N)ncnc21`, the viability, T/C is, setting by setting: (compound 0.000316 µM) 91% [middle of 4 runs]; (compound 0.001 µM) 92.7% [middle of 4 runs]; (compound 0.00316 µM) 88.9% [middle of 4 runs]; (compound 0.01 µM) 73.4% [middle of 4 runs]; (compound 0.0316 µM) 50.6% [middle of 4 runs]; (compound 0.1 µM) 17.6% [middle of 4 runs]. Also, the IC50 (curve of compound) was 32.4 nM [middle of 4 runs].

As for `CC(Nc1ccc2c(c1)OCCn1cc(N3C(=O)OCC3C(F)F)nc1-2)C(N)=O` (stereo unspecified), the viability, T/C (compound 0.00316 µM) was 104% [middle of 8 runs]; the viability, T/C (compound 0.01 µM) was 92.8% [middle of 8 runs]; the viability, T/C (compound 0.0316 µM) is 75.9% [middle of 8 runs]; the viability, T/C (compound 0.1 µM) was 56.1% [middle of 8 runs]; the viability, T/C (compound 0.316 µM) was 36.3% [middle of 8 runs]; the viability, T/C (compound 1 µM) was 23.6% [middle of 8 runs]. Besides, the IC50 under setting [1] was 140 nM [middle of 7 runs].

In the case of `CC(Nc1ncnc2nc[nH]c12)c1cc2cccc(Cl)c2c(=O)n1-c1ccccc1` (stereo unspecified), the viability, T/C (compound 0.0316 µM) was 97.8% [middle of 8 runs]; the viability, T/C (compound 0.1 µM) is 93.8% [middle of 8 runs]; the viability, T/C (compound 0.316 µM) is 92.2% [middle of 8 runs]; the viability, T/C (compound 1 µM) is 85.9% [middle of 8 runs]; the viability, T/C (compound 3.16 µM) was 80% [middle of 8 runs]; the viability, T/C (compound 10 µM) was 65% [middle of 8 runs]. Moreover, the IC50 under setting [2] was greater than 10 µM.

For `CC1(C)CCC(CN2CCN(c3ccc(C(=O)NS(=O)(=O)c4ccc(NCC5CCOCC5)c([N+](=O)[O-])c4)c(Oc4cnc5[nH]ccc5c4)c3)CC2)=C(c2ccc(Cl)cc2)C1`, the viability, T/C runs as follows: (compound 0.0316 µM) 96.8% [middle of 4 runs]; (compound 0.1 µM) 95.1% [middle of 4 runs]; (compound 0.316 µM) 92.7% [middle of 4 runs]; (compound 1 µM) 102% [middle of 4 runs]; (compound 10 µM) 32.5% [middle of 4 runs]. For the same molecule, the IC50 (curve of compound) was 7.57 µM [middle of 4 runs].

`CCCS(=O)(=O)Nc1ccc(F)c(C(=O)c2c[nH]c3ncc(-c4ccc(Cl)cc4)cc23)c1F`: the viability, T/C is 94.5% [middle of 4 runs] (compound 0.0316 µM); 106% (2×) and 102% and 103% (compound 0.1 µM); 113% [middle of 4 runs] (compound 0.316 µM); 113% [middle of 4 runs] (compound 1 µM); 105% [middle of 4 runs] (compound 3.16 µM); 1.33% [middle of 4 runs] (compound 10 µM). Besides, the IC50 (curve of compound) was 5.69 µM [middle of 4 runs].

Regarding `CCN1CCN(Cc2ccc(Nc3ncc(F)c(-c4cc(F)c5nc(C)n(C(C)C)c5c4)n3)nc2)CC1`, the viability, T/C (compound 0.00316 µM) is 98.4% [middle of 4 runs]; the viability, T/C (compound 0.01 µM) is 96.4% [middle of 4 runs]; the viability, T/C (compound 0.0316 µM) was 93.1% [middle of 4 runs]; the viability, T/C (compound 0.1 µM) is 100% and 101% (2×) and 89.5%; the viability, T/C (compound 0.316 µM) was 88.2% [middle of 4 runs]; the viability, T/C (compound 1 µM) was 85.2% [middle of 4 runs]. Further, where the note is “curve of compound”, the 50% inhibitory concentration (IC50) was greater than 1 µM.

On to `CNC(=O)c1ccc(N2C(=S)N(c3ccc(C#N)c(C(F)(F)F)c3)C(=O)C2(C)C)cc1F`, for which the viability, T/C (compound 0.0316 µM) is 106% (2×) and 93.7% and 103%; the viability, T/C (compound 0.1 µM) is 98% [middle of 4 runs]; the viability, T/C (compound 0.316 µM) was 93.5% [middle of 4 runs]; the viability, T/C (compound 1 µM) was 102% (2×) and 112% and 107%; the viability, T/C (compound 10 µM) is 88.5% [middle of 4 runs]. Besides, the 50% inhibitory concentration (IC50) (curve of compound) was greater than 10 µM.

As to `COc1c(OCCCN2CCOCC2)ccc2c3n(c(=NC(=O)c4cnc(N)nc4)nc12)CCN3`, the viability, T/C was 85% [middle of 8 runs] (compound 0.00316 µM); 71.1% [middle of 8 runs] (compound 0.01 µM); 39.5% [middle of 8 runs] (compound 0.0316 µM); 17.8% [middle of 8 runs] (compound 0.1 µM); 5.89% [middle of 8 runs] (compound 0.316 µM); 1.69% [middle of 7 runs] (compound 1 µM). In addition, the IC50 under setting [2] was 22.6 nM [middle of 6 runs].

`C[C@@H](NC(=O)c1ncnc(N)c1Cl)c1ncc(C(=O)Nc2cc(C(F)(F)F)c(Cl)cn2)s1`: the viability, T/C by setting is: (compound 0.0316 µM) 105% (2×) and 98.5% and 118%; (compound 0.1 µM) 104% (3×) and 103%; (compound 0.316 µM) 110% [middle of 4 runs]; (compound 1 µM) 115% [middle of 4 runs]; (compound 3.16 µM) 108% [middle of 4 runs]; (compound 10 µM) 102% [middle of 4 runs]. Moreover, the IC50 (curve of compound) is greater than 10 µM.

For `Cc1nc(NC(=O)N2CCCC2C(N)=O)sc1-c1ccnc(C(C)(C)C(F)(F)F)c1` (stereo unspecified), the viability, T/C is, setting by setting: (compound 0.0316 µM) 90% [middle of 8 runs]; (compound 0.1 µM) 80.7% [middle of 8 runs]; (compound 0.316 µM) 64.2% [middle of 8 runs]; (compound 1 µM) 43.8% [middle of 8 runs]; (compound 3.16 µM) 28.4% [middle of 8 runs]; (compound 10 µM) 13.6% [middle of 8 runs]. For the same molecule, the IC50 under setting [1] was 746 nM [middle of 8 runs].

Turning to `Cn1cnc2c(F)c(Nc3ccc(Br)cc3Cl)c(C(=O)NOCCO)cc21`, the viability, T/C reads like this: (compound 0.00949 µM) 90.5% (2×) and 83.8% and 88.8%; (compound 0.03 µM) 81.4% [middle of 4 runs]; (compound 0.0949 µM) 72.3% [middle of 4 runs]; (compound 0.3 µM) 66% [middle of 4 runs]; (compound 0.949 µM) 54.8% [middle of 4 runs]; (compound 3 µM) 37.9% [middle of 4 runs]. The IC50 (curve of compound) was 1.01 µM [middle of 4 runs].

Regarding `Cn1ncnc1[C@H]1c2n[nH]c(=O)c3cc(F)cc(c23)N[C@@H]1c1ccc(F)cc1`, the viability, T/C by setting is: (compound 0.000316 µM) 97.2% [middle of 4 runs]; (compound 0.001 µM) 101% [middle of 4 runs]; (compound 0.00316 µM) 103% [middle of 4 runs]; (compound 0.01 µM) 115% and 101% (2×) and 97.3%; (compound 0.0316 µM) 101% (2×) and 96.9% and 92.6%; (compound 0.1 µM) 94.8% [middle of 4 runs]. The IC50 (curve of compound) is greater than 0.1 µM.

These data come from PubChem BioAssay AID1963971 (Molecular Pharmacology Branch, DTP, NCI, 2024).
